Test [1] deals with enterococci (Enterococcus hirae). Nature of the test: Growth experiment of enterococci (secondary screening), OD600 at pH 7.0 and pH 8.5. In kind it is cell-based. The arrangement: Growth inhibition rate (%): concentration or dose not given beside the values. Particulars: for Specificity: growth inhibition at pH 8.5 versus pH 7.0. How it is done:
In the culture of enterococci (Enterococcus hirae), a culture medium in which the Na^+ concentration had been adjusted by adding a buffer solution using 2% tryptone and 1% yeast extract as the base was used. In a case of adding glucose, glucose prepared in a 50% solution was added so as to be 1% into the culture medium when the culture medium was used. The whole amount 200 μL was cultured using a 96-well plate, and OD600 was measured every hour by using a plate reader. By using culture media at pH 7.0 and pH 8.5, the effect of pH on the growth was observed. In culture of bacteria, the pH often fluctuates largely due to the decomposition of the sugars required for the growth, and it is extremely important to maintain a constant pH in this experiment, and therefore, the pH was maintained constant with the addition of a buffer suitable for each pH. Since the V-ATPase is expressed only under an alkaline condition, the growth inhibition observed with the addition of an inhibitor is largely dependent on the pH.
IC50 and the like of the above 24 kinds of compounds are described in the following table. […] Furthermore, with respect to the symbol “n.a.”, a compound having a growth inhibition rate of 60% or more at pH 7.0 is determined that there was the growth inhibition. In addition, the growth inhibition rate of a compound having no clear inhibition is also recorded for reference.

The target of test [2] is T1, V-ATPase (purified from enterococci or recombinant E. coli) (Enterococcus hirae, UniProt P43439+P43457).
T1 construct: made in house; host or cells: Enterococcus hirae (native) or recombinant E. coli
The experiment in a line: ATPase activity measurement (molybdenum blue method, primary screening). In kind it is biochemical. Here is the method: The ATPase activity can be measured by a molybdenum blue method for measuring absorbance of the inorganic phosphoric acid generated by hydrolysis of ATP. As the reaction conditions, conditions for measuring the ATPase activity can be adopted. As the buffer solution used in the reaction, Tris-HCl buffer can be used. The reaction time is usually 10 to 60 minutes, but can be appropriately adjusted depending on the air temperature or the like. The reaction of V-ATPase is terminated with the addition of a surfactant such as sodium dodecyl sulfate (SDS), and into which a color-developing liquid (such as ferrous sulfate) is added to give a color, and then the concentration of the inorganic phosphoric acid can be calculated by the measurement of the absorbance at a wavelength of 650 nm.
From the concentration of inorganic phosphoric acid calculated above, the inhibition rate of the V-ATPase reaction can be calculated. That is, a graph is created in which the inhibition rate is plotted on the vertical axis and the concentration of compound is plotted on the horizontal axis, and the concentration (IC50) at which the inhibition rate becomes 50% is determined. As the concentration of compound at which IC50 is obtained becomes lower, a higher V-ATPase inhibitory effect is exerted with a small amount, and accordingly, the compound can be taken as a candidate compound for the inhibitor for V-ATPase activity.
The V-ATPase was prepared by the method disclosed in the following papers. • Paper 1: Takeshi Murata, et. al, “Purification and Reconstitution of Na^+-translocating Vacuolar ATPase from Enterococcus hirae”, J. Biol. Chem. 272, 24885-24890 (1997) • Paper 2: Takeshi Murata, et. al, “Torque Generation of Enterococcus hirae V-ATPase”, J. Biol. Chem. 289, 31212-31223 (2014)
ATPase activity measurement was conducted by a molybdenum blue method that quantifies the inorganic phosphoric acid generated by hydrolysis of ATP with the use of absorbance measurement. The measurement was conducted in a 96-well plate, and 0.05% DDM (n-dodecyl-β-D-maltoside), 10 μg/mL of V-ATPase (purified from enterococci or recombinant E. coli), and 20 μM of a compound were added into a buffer (100 mM Tris-HCl at pH 8.5, 100 mM NaCl, 5 mM MgSO4, 10% glycerol). Into the mixture obtained above, ATP was added so as to be 5 mM, the whole amount was set to 100 μL, the reaction was started while stirring the mixture with a stirrer, and the reaction time was set to 30 minutes. Since the ATPase activity changes largely depending on the reaction temperature, the reaction time was adjusted within the range of 10 to 60 minutes corresponding to the air temperature on the day of the experiment. With the addition of 50 μL of 20% SDS, the V-ATPase was denatured and the reaction was terminated, and into the resultant mixture, 75 μL of color-developing liquid (5% ferrous sulfate, 1.6% ammonium molybdate, and 1 M sulfuric acid) was added to give a color. Immediately, the absorbance at a wavelength of 650 nm was measured by using a plate reader. Four kinds of KH2PO4 aqueous solutions of 0.2 mM, 0.5 mM, 1.0 mM, and 1.5 mM were reacted with MQ (ultrapure water) in the same experiment system, and then the activity of V-ATPase was measured by determining the concentration of generated inorganic phosphoric acid with the use of a created calibration curve. In this regard, a compound that had inhibited 50% or more of the activity of V-ATPase was diluted stepwisely so as to have a concentration of 10 μM, 5 μM, 2 μM, 1 μM, 500 nM, 200 nM, 100 nM, and 50 nM, and the measurement similar to the above was conducted.
From the results of the above measurement of ATPase activity, the inhibition rate was calculated comparing the decrease in the activity by assuming the activity under the condition of no compound addition as 100. A graph was created in which the inhibition rate was plotted on the vertical axis and the concentration of compound was plotted on the horizontal axis (FIG. 2). […]

[3] abbreviates: Table 2, E. hirae growth, pH not stated (media pH 7.0 and pH 8.5).
[4] abbreviates: Table 2, inhibition of V-ATPase ATPase activity, pH 8.5 buffer, read-out: IC50.
Where [5] appears, read: IC50 (nM), Table 2, inhibition of V-ATPase ATPase activity, pH 8.5 buffer.

Like-named read-outs stand apart in the source and are kept apart here. Where only a bound is given, the exact number is not on record here.

The term IC50 denotes the midpoint of a concentration-inhibition curve. Consider `COc1ccc(C(c2ccc3cccnc3c2O)N2CCOCC2)cc1` (stereo not shown) [Compound V-201], for which the “Growth inhibition rate (%)” value in test [1] (setting [3]) worked out at 19.6%. Further, in test [1] (Table 2), the Specificity result was “− (there was no growth inhibition in any case)”. Further, the IC50 in test [2] (setting [4]) turned out to be 4000 nM.
As for `CC1(C)CC2(CC(C)(C)c3cc(O)c(O)cc32)c2cc(O)c(O)cc21` [Compound V-124], the “Growth inhibition rate (%)” value in test [1] (setting [3]) is on record as 49.2%. In addition, in test [1] (Table 2), the Specificity entry is “+ (there was no growth inhibition at pH 7.0 but was the growth inhibition at pH 8.5)”. In test [2] (setting [4]), the half-maximal inhibitory concentration (IC50) worked out at 300 nM.
Take `CCCOc1ccc(/C=N/NC(=N)N)c(OCCC)c1` [Compound V-189]: the “Growth inhibition rate (%)” value in test [1] (setting [3]) came out at 91.2%. Also, the Specificity result in test [1] (Table 2) is reported as “+ (there was no growth inhibition at pH 7.0 but was the growth inhibition at pH 8.5)”. Also, in test [2] (setting [4]), the IC50 stood at 4500 nM.
`Cc1cccc(OCc2nc(-c3ccc(NC(=O)c4cccs4)cc3)no2)c1C` [Compound V-234-02]: the “Growth inhibition rate (%)” value in test [1] (Table 4, (1,2,4-oxadiazol-3-yl)phenyl derivatives) turned out to be 74.8%. Besides, the IC50 in test [2] (IC50 (nM), Table 4, (1,2,4-oxadiazol-3-yl)phenyl derivatives) is 40 nM.
Turning to `CCCOc1ccc(/C=N/Nc2nc3ccccc3[nH]2)c(OCCC)c1` [Compound V-289], the “Growth inhibition rate (%)” value in test [1] (setting [3]) was determined as 55.0%. The Specificity entry in test [1] (Table 2) was “+ (there was no growth inhibition at pH 7.0 but was the growth inhibition at pH 8.5)”. Further, the IC50 in test [2] (setting [4]) stood at 600 nM.
For `O=C(NC(c1ccccc1)c1cc([N+](=O)[O-])c2cccnc2c1O)C1CCCCC1` (stereo not shown) [Compound V-157], in that order: 84.2%, “n.a. (there was the growth inhibition in any case)” and 2000 nM.
Turning to `Cc1ccc2[nH]c(-c3ccc(Br)cc3)nc2c1` [Compound V-161-03], the “Growth inhibition rate (%)” value in test [1] (Table 3, 2-phenyl benzimidazole derivatives) stood at 89.8%. For the same compound, the Specificity entry in test [1] (Table 3) is reported as “+ (there was no growth inhibition at pH 7.0 but was the growth inhibition at pH 8.5)”. The IC50 in test [2] (Table 3, 2-phenyl benzimidazole derivatives, read-out: IC50) was 120 nM.
For `O=C(c1cnc(Nc2nc3ccccc3o2)nc1)c1cc(Cl)cc(Cl)c1O` [Compound V-207], the “Growth inhibition rate (%)” value in test [1] (setting [3]) worked out at 12.0%. For the same compound, the Specificity entry in test [1] (Table 2) is reported as “− (there was no growth inhibition in any case)”. Also, the IC50 in test [2] (setting [4]) stood at 5000 nM.
For `CCCCC1CCC(C(=O)Oc2ccc(C=O)c(O)c2)CC1` (stereo not shown) [Compound V-149], in that order: 90.5%, “n.a. (there was the growth inhibition in any case)” and 4500 nM.
Regarding `CCC(C)C1OC2(CCC1C)CC1CC(CC=C(C)C(OC3CC(OC)C(OC4CC(OC)C(O)C(C)O4)C(C)O3)C(C)C=CC=C3COC4C(O)C(C)=CC(C(=O)O1)C34O)O2` (stereo not shown) [Compound V-85], the “Growth inhibition rate (%)” value in test [1] (setting [3]) is listed as 66.4%. Moreover, the Specificity entry in test [1] (Table 2) is reported as “+ (there was no growth inhibition at pH 7.0 but was the growth inhibition at pH 8.5)”. For the same compound, the IC50 in test [2] (setting [5]) stood at 10000 nM.
`COc1ccc(C(=O)N/N=C/C(C)=C/c2ccc(C(C)C)cc2)cc1` [Compound V-153]: the “Growth inhibition rate (%)” value in test [1] (setting [3]) stood at 13.3%. Further, in test [1] (Table 2), the Specificity result is given as “− (there was no growth inhibition in any case)”. The IC50 in test [2] (setting [4]) stood at 1000 nM.
As to `O=C1N=C(NC2CCCC2)S/C1=C\c1ccc(OC(F)F)cc1OC(F)F` [Compound V-6, (Z)-5-(2,4-bis(difluoromethoxy)benzylidene)-2-(cyclopentylamino) thiazol-4 (5H)-one], in test [1], the “non-specific inhibition / non-specific bond” value was “no non-specific inhibition”. In test [1] (setting [3]), the “Growth inhibition rate (%)” value was 77.9%. Also, in test [1] (Table 2), the Specificity entry was “+ (there was no growth inhibition at pH 7.0 but was the growth inhibition at pH 8.5)”. In addition, the IC50 is 80 nM in test [2] (setting [5]) and at most 400 nM in test [2] (high affinity for V-ATPase (IC50), unit inferred).
In the case of `CC(Cc1ccc(O)c(O)c1)C(C)Cc1ccc(O)c(O)c1` (stereo not shown) [Compound V-115], the “Growth inhibition rate (%)” value in test [1] (setting [3]) is on record as 0.3%. The Specificity entry in test [1] (Table 2) is reported as “− (there was no growth inhibition in any case)”. In addition, the IC50 in test [2] (setting [5]) is 400 nM.
For `CN(C)c1ccc2nc3ccc(N(C)C)cc3[s+]c2c1` [Compound V-27], in that order: 64.0%, “+ (there was no growth inhibition at pH 7.0 but was the growth inhibition at pH 8.5)” and 3000 nM.
